Assay [1] concerns RPMI 8402. Nature of the assay: Cytotoxicity using camptothecin-resistant variant of RPM18402 (CPT-K5) possessing functional, but mutant TOP-1. Format: cell-based. The settings on record: Homo sapiens.
The target in assay [2] is DNA topoisomerase II (Homo sapiens) (UniProt P11388+Q02880). Nature of the assay: TOP-2 mediated DNA cleavage measured as effective concentration relative to VM26. The class given is functional.
The target of assay [3] is T1, DNA topoisomerase 1 (Homo sapiens) (UniProt P11387).
T1 sequence (whole entry): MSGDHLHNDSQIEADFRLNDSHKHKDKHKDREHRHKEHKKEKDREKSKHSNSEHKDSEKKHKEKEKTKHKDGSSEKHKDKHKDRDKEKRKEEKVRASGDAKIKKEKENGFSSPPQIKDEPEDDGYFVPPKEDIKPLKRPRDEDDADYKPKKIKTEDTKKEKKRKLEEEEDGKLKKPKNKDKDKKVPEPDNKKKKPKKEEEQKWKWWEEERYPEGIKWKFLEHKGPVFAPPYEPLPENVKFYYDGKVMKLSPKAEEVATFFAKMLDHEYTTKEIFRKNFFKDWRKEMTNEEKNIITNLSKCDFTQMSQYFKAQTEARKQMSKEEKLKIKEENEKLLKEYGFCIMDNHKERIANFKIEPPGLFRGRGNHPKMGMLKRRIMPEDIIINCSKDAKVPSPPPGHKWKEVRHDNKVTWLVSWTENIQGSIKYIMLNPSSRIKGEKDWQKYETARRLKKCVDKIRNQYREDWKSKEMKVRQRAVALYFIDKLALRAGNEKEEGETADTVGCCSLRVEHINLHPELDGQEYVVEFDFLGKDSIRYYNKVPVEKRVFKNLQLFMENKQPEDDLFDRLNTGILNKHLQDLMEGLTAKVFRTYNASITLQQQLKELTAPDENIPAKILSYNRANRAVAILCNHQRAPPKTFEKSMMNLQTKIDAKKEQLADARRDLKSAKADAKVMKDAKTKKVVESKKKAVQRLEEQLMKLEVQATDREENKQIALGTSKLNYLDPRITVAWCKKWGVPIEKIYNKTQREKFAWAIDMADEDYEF
Nature of the assay: TOP-1 mediated DNA cleavage measured as effective concentration relative to topotecan = 1. The class given is functional.

The subject of assay [4] is RPMI 8402. Nature of the assay: Cytotoxicity against human lymphoblast tumor cell line RPM18402. Format: functional, cell-based.
Assay [5] deals with Mus musculus. Nature of the assay: In vivo antitumor activity in NCR-nude-nude mice inoculated with 1.2 E6 -1.5 E6 MDA-MB-435 cells; after day 13 with an average dose of 0.22 mg/mouse (ip). Format: functional.
In assay [6] the test system is Mus musculus. Nature of the assay: In vivo antitumor activity in NCR-nude-nude mice inoculated with 1.2 E6 -1.5 E6 MDA-MB-435 cells; after day 13 with an average dose of 0.27 mg/mouse (po). The class given is functional.
The test system of assay [7] is Mus musculus. Nature of the assay: In vivo antitumor activity in NCR-nude-nude mice inoculated with 1.2 E6 -1.5 E6 MDA-MB-435 cells; after day 21 with an average dose of 0.22 mg/mouse (ip). Format: functional.
Assay [8] relates to Mus musculus. Nature of the assay: In vivo antitumor activity in NCR-nude-nude mice inoculated with 1.2 E6 -1.5 E6 MDA-MB-435 cells; after day 31 with an average dose of 0.22 mg/mouse (ip). The class given is functional.
The subject of assay [9] is Mus musculus. Nature of the assay: In vivo antitumor activity in NCR-nude-nude mice inoculated with 1.2 E6 -1.5 E6 MDA-MB-435 cells; after day 31 with an average dose of 0.27 mg/mouse (po). The class given is functional.
Assay [10] deals with Mus musculus. Nature of the assay: In vivo antitumor activity in NCR-nude-nude mice inoculated with 1.2 E6 -1.5 E6 MDA-MB-435 cells; after day 7 with an average dose of 0.22 mg/mouse (ip). Format: functional.
Assay [11] deals with Mus musculus. Nature of the assay: In vivo antitumor activity in NCR-nude-nude mice inoculated with 1.2 E6 -1.5 E6 MDA-MB-435 cells; after day 7 with an average dose of 0.27 mg/mouse (po). Format: functional.
Assay [12] deals with Mus musculus. Nature of the assay: In vivo antitumor activity in NCR-nude-nude mice inoculated with 1.2 E6 -1.5 E6 MDA-MB-435 cells; after day 21 with an average dose of 0.27 mg/mouse (po). The class given is functional.
Assay [13] deals with Mus musculus. Nature of the assay: In vivo antitumor activity in NCR-nude-nude mice inoculated with 1.2 E6 -1.5 E6 MDA-MB-435 cells after day 13 with an average dose of 0.73 mg/mouse (ip). The class given is functional.
Assay [14] has as its system Mus musculus. Nature of the assay: In vivo antitumor activity in NCR-nude-nude mice inoculated with 1.2 E6 -1.5 E6 MDA-MB-435 cells after day 13 with an average dose of 0.78 mg/mouse (po). The class given is functional.
Assay [15] concerns Mus musculus. Nature of the assay: In vivo antitumor activity in NCR-nude-nude mice inoculated with 1.2 E6 -1.5 E6 MDA-MB-435 cells after day 21 with an average dose of 0.73 mg/mouse (ip). The class given is functional.
The subject of assay [16] is Mus musculus. Nature of the assay: In vivo antitumor activity in NCR-nude-nude mice inoculated with 1.2 E6 -1.5 E6 MDA-MB-435 cells after day 21 with an average dose of 0.78 mg/mouse(po). The class given is functional.
The test system of assay [17] is Mus musculus. Nature of the assay: In vivo antitumor activity in NCR-nude-nude mice inoculated with 1.2 E6 -1.5 E6 MDA-MB-435 cells after day 31 with an average dose of 0.73 mg/mouse (ip). Format: functional.
Assay [18] deals with Mus musculus. Nature of the assay: In vivo antitumor activity in NCR-nude-nude mice inoculated with 1.2 E6 -1.5 E6 MDA-MB-435 cells after day 31 with an average dose of 0.78 mg/mouse (po). Format: functional.
Assay [19] has as its system Mus musculus. Nature of the assay: In vivo antitumor activity in NCR-nude-nude mice inoculated with 1.2 E6 -1.5 E6 MDA-MB-435 cells after day 7 with an average dose of 0.73 mg/mouse (ip). The class given is functional.
Assay [20] relates to Mus musculus. Nature of the assay: In vivo antitumor activity in NCR-nude-nude mice inoculated with 1.2 E6 -1.5 E6 MDA-MB-435 cells after day 7 with an average dose of 0.78 mg/mouse (po). The class given is functional.
Assay [21] has as its system Mus musculus. Nature of the assay: In vivo antitumor activity in NCR-nude-nude mice inoculated with 1.2 E6 -1.5 E6 MDA-MB-435 cells; after day 13 with an average dose of 13.88 mg/mouse (ip). Format: functional.
Assay [22] has as its system Mus musculus. Nature of the assay: In vivo antitumor activity in NCR-nude-nude mice inoculated with 1.2 E6 -1.5 E6 MDA-MB-435 cells; after day 21 with an average dose of 13.88 mg/mouse (ip). The class given is functional.
For assay [23], the system named is Mus musculus. Nature of the assay: In vivo antitumor activity in NCR-nude-nude mice inoculated with 1.2 E6 -1.5 E6 MDA-MB-435 cells; after day 31 with an average dose of 13.88 mg/mouse (ip). The class given is functional.
Assay [24] relates to Mus musculus. Nature of the assay: In vivo antitumor activity in NCR-nude-nude mice inoculated with 1.2 E6 -1.5 E6 MDA-MB-435 cells; after day 7 with an average dose of 13.88 mg/mouse (ip). The class given is functional.

Some results are limits rather than exact numbers.

For the compound `COc1cc2c(=O)n(CC3CCCO3)c3c4cc5c(cc4nnc3c2cc1OC)OCO5` (configuration not stated), the figures for the IC50 with RPMI 8402 [1] and with RPMI 8402 [4] were more than 10000 nM and 10 nM, respectively. Further, the REC in assay [2] is more than 100; in assay [3], 30.
In the same order, the values of `COc1cc2c(=O)n(C(C)CN(C)C)c3c4cc5c(cc4ncc3c2cc1OC)OCO5` (configuration not stated) are 3400 nM, 570 nM, more than 100 and more than 1000.
On to `COc1cc2c(=O)n(CCN(C)C)c3c4cc5c(cc4nnc3c2cc1OC)OCO5`, for which the IC50 – broadly, the concentration at which inhibition is half-maximal – turned out to be 600 nM in the assay on RPMI 8402 [1] and 1 nM in the assay on RPMI 8402 [4]. Also, the REC was more than 100 in [2] and 0.3 in [3]. The Average tumor volume in the assay with Mus musculus [5] is 211 mm**3; with Mus musculus [6], 183 mm**3; with Mus musculus [7] it was 252 mm**3; with Mus musculus [8], 403 mm**3; in the assay with Mus musculus [9] it was 200 mm**3; in the assay with Mus musculus [10], 167 mm**3. Further, the Average tumor volume with Mus musculus [11] is given as 154 mm**3; in the assay with Mus musculus [12], 207 mm**3.
Take `CCCCn1c(=O)c2cc(OC)c(OC)cc2c2nnc3cc4c(cc3c21)OCO4`: the IC50 was determined as 10000 nM in the assay with RPMI 8402 [1] and 4 nM in the assay with RPMI 8402 [4]. Moreover, the REC in [2] was more than 100; in assay [3], 1.
The like results for `COc1cc([C@@H]2c3cc4c(cc3[C@@H](O[C@@H]3O[C@@H]5CO[C@@H](c6cccs6)O[C@H]5[C@H](O)[C@H]3O)[C@H]3COC(=O)[C@H]23)OCO4)cc(OC)c1O` [TENIPOSIDE] were, in that order, 280 nM, 220 nM, more than 100 and more than 1000.
`COc1cc2c(=O)n(C(C)CN(C)C)c3c4cc5c(cc4nnc3c2cc1OC)OCO5` (configuration not stated): the IC50 with RPMI 8402 [1] was found to be 3600 nM; in the assay on RPMI 8402 [4] it was 260 nM. Also, the REC in assay [2] was more than 100; in assay [3], 1000.
Turning to `COc1cc2c(=O)n(CCN(C)C)c3c4cc5c(cc4ncc3c2cc1OC)OCO5`, the IC50 in the assay on RPMI 8402 [1] worked out at 900 nM; with RPMI 8402 [4], 2 nM. Also, in assay [2], the REC is more than 100. In addition, the Average tumor volume stood at 84 mm**3 in the assay on Mus musculus [13]; 148 mm**3 in the assay with Mus musculus [14]; 65 mm**3 with Mus musculus [15]; 99 mm**3 in the assay with Mus musculus [16]; 40 mm**3 in the assay on Mus musculus [17]; 62 mm**3 with Mus musculus [18]. For the same compound, the Average tumor volume in the assay with Mus musculus [19] came out at 123 mm**3; in the assay with Mus musculus [20], 159 mm**3.
For the compound `CCc1c2c(nc3ccc(OC(=O)N4CCC(N5CCCCC5)CC4)cc13)-c1cc3c(c(=O)n1C2)CCC(=O)C3(O)CC` (configuration not stated), the half-maximal inhibitory concentration (IC50) with RPMI 8402 [1] was more than 10000 nM. In [2], this compound displayed an REC of more than 100. Besides, the Average tumor volume is given as 116 mm**3 in the assay on Mus musculus [21], 36 mm**3 in the assay on Mus musculus [22], 11 mm**3 with Mus musculus [23] and 118 mm**3 in the assay with Mus musculus [24].
On to `CC[C@@]1(O)C(=O)OCc2c1cc1n(c2=O)Cc2cc3c(CN(C)C)c(O)ccc3nc2-1` [TOPOTECAN], for which the IC50 with RPMI 8402 [1] is more than 10000 nM; in the assay on RPMI 8402 [4], 12 nM. The REC in assay [2] was more than 100; in [3], 1.
Take `COc1cc2c(=O)n(CC3CCCO3)c3c4cc5c(cc4ncc3c2cc1OC)OCO5` (configuration not stated): the IC50 is more than 10000 nM in the assay on RPMI 8402 [1] and 150 nM in the assay on RPMI 8402 [4]. Moreover, the REC is more than 100 in assay [2] and 200 in assay [3].

The values are drawn from ChEMBL document CHEMBL1134974, “Diaza- and triazachrysenes: potent topoisomerase-targeting agents with exceptional antitumor activity against the human tumor xenograft, MDA-MB-435” (Bioorg Med Chem Lett, 2002).
